The text below walks through data of ChEMBL document CHEMBL1909046, “DrugMatrix in vitro pharmacology data”.

Assay [1] addresses Nitric oxide synthase 1 (Rattus norvegicus, UniProt P29476). It is filed as tissue-based, Cerebellum.
Assay [2] can be described thus: DRUGMATRIX: Serotonin (5-Hydroxytryptamine) 5-HT3 radioligand binding (ligand: [3H] GR-65630). The class given is cell membranes, Membrane. As to conditions: hek293; Not Active = under 50% inhibition at 10 µM.
Assay [3] deals with Kappa-type opioid receptor (Homo sapiens, UniProt P41145). The assay can be described thus: DRUGMATRIX: Opiate kappa (OP2, KOP) radioligand binding (ligand: [3H] Diprenorphine). The class given is cell membranes, HEK293, Membrane. The settings on record: Not Active = under 50% inhibition at 10 µM.
Assay [4] deals with Platelet-activating factor receptor (Homo sapiens, UniProt P25105). In words: biochemical. It is filed as tissue-based. As to conditions: platelet.
Assay [5] deals with Mitogen-activated protein kinase 1 (Homo sapiens, UniProt P28482). The assay can be described thus: DRUGMATRIX: Protein Serine/Threonine Kinase, ERK2 enzyme inhibition (substrate: Myelin Basic Protein). More on the design: species or system Escherichia coli. As to conditions: Not Active = under 50% inhibition at 10 µM.
In assay [6] the target is T1, C-C chemokine receptor type 4 (Homo sapiens, UniProt P51679). Further: in other assays of this panel Not Active means under 50% inhibition at 10 µM.
T1 sequence (P51679 whole entry): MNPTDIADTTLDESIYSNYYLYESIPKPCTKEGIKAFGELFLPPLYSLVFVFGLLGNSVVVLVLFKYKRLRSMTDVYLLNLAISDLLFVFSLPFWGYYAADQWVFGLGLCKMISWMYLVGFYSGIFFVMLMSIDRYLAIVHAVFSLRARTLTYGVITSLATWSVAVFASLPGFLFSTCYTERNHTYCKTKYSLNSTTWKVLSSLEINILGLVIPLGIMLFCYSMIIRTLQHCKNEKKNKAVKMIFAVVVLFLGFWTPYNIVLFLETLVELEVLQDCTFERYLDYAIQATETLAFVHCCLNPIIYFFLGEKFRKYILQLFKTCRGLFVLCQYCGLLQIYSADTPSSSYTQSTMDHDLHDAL
The class given is cell membranes, Membrane. The settings on record: chem-1.

Assay [7] deals with Glycine receptor (Rattus norvegicus, UniProt P22771+P24524+P07727+P20781). The class given is cell membranes, Wistar, Spinal cord, Membrane.

Nitric oxide synthase 1, sequence (P29476 whole entry): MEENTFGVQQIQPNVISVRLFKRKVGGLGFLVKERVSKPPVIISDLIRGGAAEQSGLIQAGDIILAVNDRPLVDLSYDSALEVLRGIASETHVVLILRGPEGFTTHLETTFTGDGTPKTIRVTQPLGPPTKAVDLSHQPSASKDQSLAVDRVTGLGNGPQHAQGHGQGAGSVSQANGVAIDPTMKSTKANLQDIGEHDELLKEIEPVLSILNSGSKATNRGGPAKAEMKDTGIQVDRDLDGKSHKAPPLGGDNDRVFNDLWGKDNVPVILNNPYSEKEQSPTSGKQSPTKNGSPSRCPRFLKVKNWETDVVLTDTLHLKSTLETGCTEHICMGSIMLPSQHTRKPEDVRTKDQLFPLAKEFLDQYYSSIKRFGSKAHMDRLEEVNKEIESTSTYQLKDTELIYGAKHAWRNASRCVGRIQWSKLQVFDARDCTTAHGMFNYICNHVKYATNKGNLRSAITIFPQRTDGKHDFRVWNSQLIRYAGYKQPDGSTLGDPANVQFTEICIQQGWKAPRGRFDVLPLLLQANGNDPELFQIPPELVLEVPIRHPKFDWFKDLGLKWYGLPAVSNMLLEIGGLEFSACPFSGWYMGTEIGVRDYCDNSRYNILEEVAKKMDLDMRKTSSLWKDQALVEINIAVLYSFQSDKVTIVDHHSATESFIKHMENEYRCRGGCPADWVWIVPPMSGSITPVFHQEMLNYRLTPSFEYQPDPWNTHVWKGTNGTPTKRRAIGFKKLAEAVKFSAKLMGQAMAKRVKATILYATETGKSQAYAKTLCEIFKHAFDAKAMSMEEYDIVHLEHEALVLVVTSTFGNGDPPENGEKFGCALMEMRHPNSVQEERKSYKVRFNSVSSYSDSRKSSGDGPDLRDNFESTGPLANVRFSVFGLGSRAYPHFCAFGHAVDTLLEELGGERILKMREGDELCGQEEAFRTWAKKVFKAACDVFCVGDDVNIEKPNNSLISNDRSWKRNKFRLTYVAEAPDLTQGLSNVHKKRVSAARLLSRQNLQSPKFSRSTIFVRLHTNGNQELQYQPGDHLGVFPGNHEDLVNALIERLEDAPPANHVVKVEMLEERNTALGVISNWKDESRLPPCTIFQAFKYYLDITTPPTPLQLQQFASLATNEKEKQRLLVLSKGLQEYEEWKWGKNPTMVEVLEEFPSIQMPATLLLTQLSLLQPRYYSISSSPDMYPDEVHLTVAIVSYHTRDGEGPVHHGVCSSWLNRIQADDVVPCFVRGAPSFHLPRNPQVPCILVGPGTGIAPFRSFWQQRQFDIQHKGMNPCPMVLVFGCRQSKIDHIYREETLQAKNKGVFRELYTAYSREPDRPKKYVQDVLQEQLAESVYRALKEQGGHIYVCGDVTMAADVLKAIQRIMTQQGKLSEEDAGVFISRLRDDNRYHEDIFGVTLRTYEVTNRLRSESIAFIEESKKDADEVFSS
Kappa-type opioid receptor, sequence (P41145 whole entry): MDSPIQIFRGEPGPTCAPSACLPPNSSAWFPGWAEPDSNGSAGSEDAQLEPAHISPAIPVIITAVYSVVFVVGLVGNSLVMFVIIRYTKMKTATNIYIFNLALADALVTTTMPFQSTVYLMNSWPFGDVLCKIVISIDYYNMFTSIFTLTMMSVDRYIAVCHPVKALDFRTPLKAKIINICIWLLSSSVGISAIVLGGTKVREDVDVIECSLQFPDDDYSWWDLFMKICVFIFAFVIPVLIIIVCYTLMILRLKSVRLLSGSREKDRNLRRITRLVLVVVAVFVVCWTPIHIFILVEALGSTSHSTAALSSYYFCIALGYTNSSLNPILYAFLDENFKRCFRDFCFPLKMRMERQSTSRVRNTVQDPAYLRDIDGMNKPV
Mitogen-activated protein kinase 1, sequence (P28482 whole entry): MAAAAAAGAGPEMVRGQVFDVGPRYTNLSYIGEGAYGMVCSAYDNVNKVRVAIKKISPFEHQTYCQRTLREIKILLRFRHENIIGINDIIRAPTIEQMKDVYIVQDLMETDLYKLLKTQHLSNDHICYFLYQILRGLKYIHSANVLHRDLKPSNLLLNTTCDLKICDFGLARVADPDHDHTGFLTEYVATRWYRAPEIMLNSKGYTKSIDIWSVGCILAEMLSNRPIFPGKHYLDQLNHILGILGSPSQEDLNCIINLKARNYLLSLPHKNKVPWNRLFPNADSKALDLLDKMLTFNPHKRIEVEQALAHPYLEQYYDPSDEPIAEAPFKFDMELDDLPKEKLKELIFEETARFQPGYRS
Platelet-activating factor receptor, sequence (P25105 whole entry): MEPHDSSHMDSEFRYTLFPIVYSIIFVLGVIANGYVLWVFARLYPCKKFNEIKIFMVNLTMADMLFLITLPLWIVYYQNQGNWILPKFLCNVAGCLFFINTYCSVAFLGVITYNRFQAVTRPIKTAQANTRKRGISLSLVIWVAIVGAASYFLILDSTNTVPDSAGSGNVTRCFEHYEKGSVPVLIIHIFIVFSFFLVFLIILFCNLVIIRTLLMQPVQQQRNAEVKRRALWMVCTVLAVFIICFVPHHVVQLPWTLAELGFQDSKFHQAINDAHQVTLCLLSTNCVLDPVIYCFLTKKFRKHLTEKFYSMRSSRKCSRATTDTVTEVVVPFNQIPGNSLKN

In general, IC50 refers to the concentration at which inhibition is half-maximal. A word on the Ki: it is the equilibrium dissociation constant of an inhibitor or competing ligand from its target. Read a low Ki as tighter binding. With `C#C[C@]1(O)CC[C@H]2[C@@H]3CCc4cc(O)ccc4[C@H]3CC[C@@]21C` [ETHINYL ESTRADIOL], the IC50 result in assay [1] was “Not Active”; in assay [2] it was “Not Active”; in assay [3] (read-out: IC50), 25.9 µM; in assay [4], “Not Active”; in assay [5], “Not Active”; in assay [6], “Not Active”. Further, the IC50 result in assay [7] is “Not Active”. The Ki entry in assay [2] is “Not Active”; in assay [3] it was 10.4 µM.
For the compound `OCCO` [ETHYLENE GLYCOL], the 50% inhibitory concentration (IC50) entry in assay [1], in assay [2], in assay [3] (hek293), in assay [4], in assay [5] and in assay [6] was “Not Active” each time. Also, in assay [7], the IC50 result is reported as “Not Active”. In assay [2], the Ki result is “Not Active”.
Turning to `CC(=O)OCC(CCn1cnc2cnc(N)nc21)COC(C)=O` [FAMCICLOVIR], the IC50 result in assay [1], in assay [2], in assay [3] (hek293), in assay [4], in assay [5] and in assay [6] was “Not Active” each time. For the same compound, the IC50 entry in assay [7] was “Not Active”. Also, the Ki result in assay [2] is reported as “Not Active”.
Regarding `O=C(O)Cc1ccc(-c2ccccc2)cc1` [FELBINAC], the IC50 entry in assay [1], in assay [2], in assay [3] (hek293), in assay [4], in assay [5] and in assay [6] was “Not Active” throughout. Besides, the IC50 entry in assay [7] is recorded as “Not Active”. In addition, the Ki result in assay [2] is on record as “Not Active”.
Take `CCOC(=O)C1=C(C)NC(C)=C(C(=O)OC)C1c1cccc(Cl)c1Cl` (configuration not stated) [FELODIPINE]: the IC50 result in assay [1], in assay [2], in assay [3] (hek293), in assay [4], in assay [5] and in assay [6] was “Not Active” each time. In addition, the IC50 entry in assay [7] is given as “Not Active”. Moreover, in assay [2], the Ki entry is listed as “Not Active”.
Regarding `CC(C(=O)O)c1ccc(-c2ccccc2)c(F)c1` (configuration not stated) [FLURBIPROFEN], the half-inhibitory concentration (IC50) result in assay [1], in assay [2], in assay [3] (hek293), in assay [4], in assay [5] and in assay [6] was “Not Active” in each case. Further, in assay [7], the IC50 entry was “Not Active”. The Ki entry in assay [2] was “Not Active”.
`Cc1cn[nH]c1` [FOMEPIZOLE]: the IC50 result in assay [1], in assay [2], in assay [3] (hek293), in assay [4], in assay [5] and in assay [6] was “Not Active” throughout. Moreover, in assay [7], the IC50 entry was “Not Active”. For the same compound, the Ki entry in assay [2] was “Not Active”.
As to `NC[C@@H]1O[C@H](O[C@H]2[C@@H](O)[C@H](O[C@@H]3[C@@H](O)[C@H](N)C[C@H](N)[C@H]3O[C@H]3O[C@H](CN)[C@@H](O)[C@H](O)[C@H]3N)O[C@@H]2CO)[C@H](N)[C@@H](O)[C@@H]1O` [FRAMYCETIN], the IC50 entry in assay [1], in assay [2], in assay [3] (hek293), in assay [4], in assay [5] and in assay [6] was “Not Active” each time. In assay [7], the IC50 result is “Not Active”. The Ki result in assay [2] is “Not Active”.
Regarding `C[C@H]([C@](O)(Cn1cncn1)c1ccc(F)cc1F)S(C)(=O)=O` [GENACONAZOLE], the IC50 result in assay [1], in assay [2], in assay [3] (hek293), in assay [4], in assay [5] and in assay [6] was “Not Active” throughout. In addition, the IC50 entry in assay [7] is recorded as “Not Active”. For the same compound, in assay [2], the Ki entry was “Not Active”.
`Cc1c(F)c(N2CCNC(C)C2)cc2c1c(=O)c(C(=O)O)cn2C1CC1` (configuration not stated) [GREPAFLOXACIN]: the IC50 result in assay [1], in assay [2], in assay [3] (hek293), in assay [4], in assay [5] and in assay [6] was “Not Active” each time. Further, the IC50 result in assay [7] was “Not Active”. Moreover, the Ki entry in assay [2] was “Not Active”.
`COc1ccccc1OCC(O)CO` (configuration not stated) [GUAIFENESIN]: the IC50 result in assay [1], in assay [2], in assay [3] (hek293), in assay [4], in assay [5] and in assay [6] was “Not Active” each time. Also, the IC50 entry in assay [7] is given as “Not Active”. Also, the Ki entry in assay [2] is recorded as “Not Active”.
Consider `N=C(N)N/N=C/c1c(Cl)cccc1Cl` [GUANABENZ], for which the IC50 result in assay [1], in assay [2], in assay [3] (hek293), in assay [4], in assay [5] and in assay [6] was “Not Active” throughout. Further, in assay [7], the IC50 result was “Not Active”. For the same compound, the Ki entry in assay [2] is reported as “Not Active”.
On to `C[C@]12CCC(=O)C=C1CC[C@@H]1[C@@H]2[C@@H](O)C[C@@]2(C)[C@H]1CC[C@]2(O)C(=O)CO` [HYDROCORTISONE], for which the IC50 result in assay [1], in assay [2], in assay [3] (hek293), in assay [4], in assay [5] and in assay [6] was “Not Active” each time. Also, the IC50 result in assay [7] is reported as “Not Active”. Further, the Ki result in assay [2] is on record as “Not Active”.
For the compound `C/C=C\c1ccc(O)c(OC)c1` [ISOEUGENOL], the IC50 result in assay [1], in assay [2], in assay [3] (hek293), in assay [4], in assay [5] and in assay [6] was “Not Active” in each case. Further, the IC50 result in assay [7] is given as “Not Active”. In addition, the Ki result in assay [2] was “Not Active”.
As for `NC[C@H]1O[C@H](O[C@H]2[C@H](O)[C@@H](O[C@H]3O[C@H](CO)[C@@H](O)[C@H](N)[C@H]3O)[C@H](N)C[C@@H]2N)[C@H](O)[C@@H](O)[C@@H]1O` [KANAMYCIN], the IC50 entry in assay [1], in assay [2], in assay [3] (hek293), in assay [4], in assay [5] and in assay [6] was “Not Active” throughout. Besides, the IC50 entry in assay [7] was “Not Active”. In addition, in assay [2], the Ki entry is on record as “Not Active”.
As to `CC[C@H](C)C(=O)O[C@H]1C[C@@H](C)C=C2C=C[C@H](C)[C@H](CC[C@@H]3C[C@@H](O)CC(=O)O3)[C@H]21` [LOVASTATIN], the IC50 entry in assay [1], in assay [2], in assay [3] (hek293), in assay [4], in assay [5] and in assay [6] was “Not Active” each time. In addition, the IC50 result in assay [7] is listed as “Not Active”. Moreover, the Ki entry in assay [2] is reported as “Not Active”.
Turning to `CC(C(=O)O)c1ccc(CC2CCCC2=O)cc1` (configuration not stated) [LOXOPROFEN], the IC50 result in assay [1], in assay [2], in assay [3] (hek293), in assay [4], in assay [5] and in assay [6] was “Not Active” in each case. Moreover, in assay [7], the IC50 result is “Not Active”. Further, the Ki result in assay [2] is recorded as “Not Active”.
Take `Cc1cccc(Nc2ccccc2C(=O)O)c1C` [MEFENAMIC ACID]: the IC50 entry in assay [1], in assay [2], in assay [3] (hek293), in assay [4], in assay [5] and in assay [6] was “Not Active” in each case. The IC50 entry in assay [7] is reported as “Not Active”. In addition, the Ki result in assay [2] was “Not Active”.
As for `CC(=O)O[C@]1(C(C)=O)CC[C@H]2[C@@H]3C=C(C)C4=CC(=O)CC[C@]4(C)[C@H]3CC[C@@]21C` [MEGESTROL ACETATE], the IC50 entry in assay [1], in assay [2], in assay [3] (hek293), in assay [4], in assay [5] and in assay [6] was “Not Active” each time. Further, the IC50 result in assay [7] was “Not Active”. The Ki result in assay [2] is on record as “Not Active”.
`COc1ccccc1OCC(O)COC(N)=O` (configuration not stated) [METHOCARBAMOL]: the IC50 result in assay [1], in assay [2], in assay [3] (hek293), in assay [4], in assay [5] and in assay [6] was “Not Active” in each case. The IC50 entry in assay [7] was “Not Active”. The Ki entry in assay [2] was “Not Active”.
As for `CN(Cc1cnc2nc(N)nc(N)c2n1)c1ccc(C(=O)N[C@@H](CCC(=O)O)C(=O)O)cc1` [METHOTREXATE], the IC50 result in assay [1], in assay [2], in assay [3] (hek293), in assay [4], in assay [5] and in assay [6] was “Not Active” in each case. Also, in assay [7], the IC50 result is reported as “Not Active”. Also, the Ki result in assay [2] is given as “Not Active”.
Regarding `COC(=O)c1ccccc1O` [METHYL SALICYLATE], the IC50 entry in assay [1], in assay [2], in assay [3] (hek293), in assay [4], in assay [5] and in assay [6] was “Not Active” in each case. In addition, the IC50 entry in assay [7] is on record as “Not Active”. Further, the Ki result in assay [2] was “Not Active”.
